# Patent US20250177359A1, “COMPOUNDS FOR USE IN THE TREATMENT OF CANCER AND INFLAMMATORY CONDITIONS” (priority 2022, published 2025)
# Read-outs that look alike come from different tables or passages of the source.
# Legend:
# PARP2 = target: T1, PARP2 (Homo sapiens, UniProt Q9UGN5); assay: biochemical; assay type: biochemical
# T1 construct: made in house
# Protocol: (§1) All starting materials, reagents, and solvents were purchased from common commercial suppliers and were used as such without further purification. […] Organic solutions were dried over anhydrous Na2SO4 and concentrated with rotary evaporator at low pressure. All the reactions were routinely checked by thin-layer chromatography (TLC) on silica gel 60F254 (Merck) and visualized by using UV and iodine. Flash chromatography separations were carried out on Merck silica gel 60 (mesh 230-400) or by using automated Buchi Reveleris X2-UV with column FP Ecoflex Si 12 g. Yields were of purified products and were not optimized. ^1HNMR spectra were recorded at 400 MHz (Bruker Avance DRX-400), while ^13CNMR spectra were recorded at 101 MHz (Bruker Avance DRX-400). Chemical shifts are given in ppm (δ) relative to TMS. […] Mating constant (J) are reported in Hz. The purity of the tested compounds was evaluated by HPLC analysis using Jasco LC-4000 instrument equipped with a UV-Visible Diode Array Jasco-MD4015 (Jasco Corporation, Tokyo, Japan), and XTerra MS C18 column, 5 μm×4.6 mm×150 mm (Waters Corporation, Massachusetts, USA). Chromatograms were analyzed by ChromNAV2.0 Chromatography Data System software. […] The peak retention time (ret. time) is given in minutes. […] 1-Isobutoxy-4-methoxy-2-nitrobenzene (113). Isobutyl alcohol (0.6 mL, 6.43 mmol) was added, under nitrogen atmosphere at 0° C., to a suspension of NaH (0.26 g, 6.43 mmol) in dry DMF. After 15 minutes, 1-fluoro-4-methoxy-2-nitrobenzene 112 (1 g, 5.84 mmol) was also added and the reaction mixture was stirred at 80° C. for 4 h. […] (2-Isobutoxy-5-methoxyphenyl)amine (114). Zn (1.57 g, 24 mmol) and NH4C1 (2.45 g, 40 mmol) were added to a solution of 113 (0.46 g, 2 mmol) in acetone/H2O (50 mL, ratio 5:1). The reaction mixture was stirred at 60° C. for 3 h and, then, it was filtered over celite. […] N-(2,5-diethoxyphenyl)thiourea (55). […] N-(2-isobutoxy-5-methoxyphenyl)thiourea (115). […] A solution of Br2 (0.2 mL, 3.3 mmol) in CHCl3 (5 mL) was slowly added to a suspension of 45 (0.6 g, 3.3 mmol) in CHCl3 (13 mL), at 0° C. The reaction mixture was stirred at r.t. for 4 h and, then, a 10% solution of Na2SO3 in water was added to the mixture. […] 4,7-Diethoxy-1,3-benzothiazol-2-amine (66). […] 4-Isobutoxy-7-methoxy-1,3-benzothiazol-2-amine (116). […] Hydrazine hydrate (0.23 mL, 4.77 mmol) and CH3COOH (0.12 mL, 2.1 mmol) were added to a suspension of 56 (0.29 g, 1.59 mmol) in ethylene glycol (8 mL), and the reaction mixture was stirred for 24 h at 125° C. […] 6-Ethyl-2-hydrazino-1,3-benzothiazole (69). […] 6-Ispropyl-2-hydrazino-1,3-benzothiazole (70). […] 2-Hydrazino-4,7-dimethoxy-1,3-benzothiazole (73). […] 2-Hydrazino-5,7-dimethoxy-1,3-benzothiazole (75). […] 2-Hydrazino-4,7-Diethoxy-1,3-benzothiazole (77). […] 2-Hydrazino-5-methyl[1,3]thiazolo[5,4-b]pyridine (100). […] A solution of 67 (0.13 g, 0.65 mmol) in formic acid (5 mL) was refluxed for 10 h. The reaction mixture was then poured into ice/water and the pH was neutralized using a saturated solution of NaHCO3.
# TNKS2 = target: T2, TNKS2 (Homo sapiens, UniProt Q9H2K2); assay: biochemical
# T2 sequence (Q9H2K2 1-1166): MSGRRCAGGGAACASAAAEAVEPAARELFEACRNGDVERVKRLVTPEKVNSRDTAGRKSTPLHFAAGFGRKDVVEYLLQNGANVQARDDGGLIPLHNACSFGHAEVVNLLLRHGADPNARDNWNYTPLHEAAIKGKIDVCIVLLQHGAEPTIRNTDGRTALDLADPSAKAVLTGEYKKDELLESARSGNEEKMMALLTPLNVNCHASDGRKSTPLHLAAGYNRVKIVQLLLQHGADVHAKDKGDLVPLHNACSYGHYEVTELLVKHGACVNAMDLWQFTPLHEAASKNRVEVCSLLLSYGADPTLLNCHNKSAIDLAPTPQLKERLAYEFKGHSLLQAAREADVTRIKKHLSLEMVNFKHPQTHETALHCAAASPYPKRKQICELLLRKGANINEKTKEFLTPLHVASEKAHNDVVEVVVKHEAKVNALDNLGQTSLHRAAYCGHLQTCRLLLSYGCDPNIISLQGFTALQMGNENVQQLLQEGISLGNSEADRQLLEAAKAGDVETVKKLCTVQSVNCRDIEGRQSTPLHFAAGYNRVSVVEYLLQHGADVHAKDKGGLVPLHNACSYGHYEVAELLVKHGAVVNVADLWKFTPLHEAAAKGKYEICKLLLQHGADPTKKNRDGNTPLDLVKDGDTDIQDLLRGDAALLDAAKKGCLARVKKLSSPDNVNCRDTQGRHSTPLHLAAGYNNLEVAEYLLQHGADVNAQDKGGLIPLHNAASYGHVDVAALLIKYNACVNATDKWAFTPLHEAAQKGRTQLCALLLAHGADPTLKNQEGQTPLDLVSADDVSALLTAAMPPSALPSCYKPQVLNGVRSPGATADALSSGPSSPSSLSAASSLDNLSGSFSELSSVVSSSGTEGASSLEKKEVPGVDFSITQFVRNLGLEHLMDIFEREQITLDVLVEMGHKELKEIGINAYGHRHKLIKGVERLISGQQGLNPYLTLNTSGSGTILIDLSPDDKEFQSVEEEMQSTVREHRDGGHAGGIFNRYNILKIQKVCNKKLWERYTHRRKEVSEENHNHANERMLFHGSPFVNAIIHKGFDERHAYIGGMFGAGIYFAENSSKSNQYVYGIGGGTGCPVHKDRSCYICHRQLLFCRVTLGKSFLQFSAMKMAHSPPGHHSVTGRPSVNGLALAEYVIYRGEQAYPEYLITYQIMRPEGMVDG
# Protocol: as §1
# [1] = NAD+ consumption assay, > less than 50% inhibition at highest concentration, >> no inhibition
# [2] = read-out: TNKS2 IC50, NAD+ consumption assay, > less than 50% inhibition at highest concentration, >> no inhibition
# T1 sequence (Q9UGN5 whole entry): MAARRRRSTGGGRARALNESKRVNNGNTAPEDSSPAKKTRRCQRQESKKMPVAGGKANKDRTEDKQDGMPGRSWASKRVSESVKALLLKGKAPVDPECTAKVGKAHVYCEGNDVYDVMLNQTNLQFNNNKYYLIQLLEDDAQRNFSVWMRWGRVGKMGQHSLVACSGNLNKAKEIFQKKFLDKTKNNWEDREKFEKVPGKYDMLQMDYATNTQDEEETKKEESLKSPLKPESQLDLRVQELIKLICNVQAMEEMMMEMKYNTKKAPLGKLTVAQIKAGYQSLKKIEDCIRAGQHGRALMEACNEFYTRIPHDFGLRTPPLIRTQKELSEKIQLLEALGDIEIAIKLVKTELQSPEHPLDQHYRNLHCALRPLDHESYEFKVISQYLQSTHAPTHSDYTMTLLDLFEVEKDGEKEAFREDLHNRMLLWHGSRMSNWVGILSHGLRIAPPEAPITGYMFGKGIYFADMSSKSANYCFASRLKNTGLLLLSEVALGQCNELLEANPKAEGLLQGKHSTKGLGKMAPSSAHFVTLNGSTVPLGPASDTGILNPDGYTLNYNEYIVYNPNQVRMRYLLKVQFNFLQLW
SMILES,IC50 (PARP2; [1]),IC50 (TNKS2; [2]),IC50 (PARP2),TNKS2 pIC50 ± SEM (TNKS2; experiment repeated three times),IC50 (TNKS2)
Cc1ccc2c(c1)sc1nncn12 [Compound 1],4 µM,5.3 µM,–,–,–
Cc1cc(C)c2c(c1)sc1nncn12 [Compound 2],1.3 µM,1.2 µM,–,–,–
c1ccc2c(c1)sc1nncn12 [Compound 3],–,2.5 µM,5.3 µM,–,–
"Cc1ccc(F)c2c1sc1nncn12 [Compound 4, 5-Fluoro-8-methyl[1,2,4]triazolo[3,4-b][1,3]benzothiazole]",–,5.4 µM,–,–,–
"Cc1ccc2sc3nncn3c2c1 [Compound 5, 6-Methyl[1,2,4]triazolo[3,4-b][1,3]benzothiazole]",1.5 µM,–,–,(6.02 ± 0.13),–
"Cc1cccc2c1sc1nncn12 [Compound 6, 8-Methyl[1,2,4]triazolo[3,4-b][1,3]benzothiazole]",8.3 µM,3.8 µM,–,–,–
"CCc1ccc2c(c1)sc1nncn12 [Compound 7, 7-Ethyl[1,2,4]triazolo[3,4-b][1,3]benzothiazole]",3.9 µM,5.3 µM,–,–,–
"CC(C)c1ccc2c(c1)sc1nncn12 [Compound 8, 7-Isopropyl[1,2,4]triazolo[3,4-b][1,3]benzothiazole]",4.5 µM,9.5 µM,–,–,–
Clc1ccc2c(c1)sc1nncn12 [Compound 9],2.4 µM,10 µM,–,–,–
"COc1ccc2sc3nncn3c2c1 [Compound 11, 6-Methoxy[1,2,4]triazolo[3,4-b][1,3]benzothiazole]",4.7 µM,1 µM,–,–,–
COc1ccc2c(c1)sc1nncn12 [Compound 12],8.8 µM,5.5 µM,–,–,–
"COc1ccc(OC)c2c1sc1nncn12 [Compound 13, 5,8-Dimethoxy[1,2,4]triazolo[3,4-b][1,3]benzothiazole]",9.2 µM,4 µM,–,–,–
"COc1cccc2c1sc1nncn12 [Compound 14, 8-Methoxy[1,2,4]triazolo[3,4-b][1,3]benzothiazole]",–,24 µM,> 10 µM,–,–
"COc1cccc2sc3nncn3c12 [Compound 15, 5-Methoxy[1,2,4]triazolo[3,4-b][1,3]benzothiazole]",–,1 µM,–,–,–
"COc1cc(OC)c2sc3nncn3c2c1 [Compound 16, 6,8-Dimethoxy[1,2,4]triazolo[3,4-b][1,3]benzothiazole]",20 µM,7.6 µM,–,–,–
"Oc1cccc2c1sc1nncn12 [Compound 18, [1,2,4]Triazolo[3,4-b][1,3]benzothiazol-8-ol]",29 µM,17 µM,–,–,–
"CSc1nnc2sc3cc(C)ccc3n12 [Compound 21, 7-Methyl-3-(methylthio)[1,2,4]triazolo[3,4-b][1,3]benzothiazole]",12 µM,–,–,–,> 100 µM
"Cc1ccc2c(c1)sc1nnc(SCc3ccc(Cl)cc3)n12 [Compound 23, 3-[(4-Chlorobenzyl)thio]-7-methyl[1,2,4]triazolo[3,4-b][1,3]benzothiazole]",–,–,> 100 µM,–,> 100 µM
"Cc1ccc2c(c1)sc1nnc(NCc3ccc(Cl)cc3)n12 [Compound 24, N-(4-chlorobenzyl)-7-methyl[1,2,4]triazolo[3,4-b][1,3]benzothiazol-3-amine]",70 µM,–,–,–,> 100 µM
"Cc1ccc2c(c1)sc1nnc(/N=C\c3ccc(Cl)cc3)n12 [Compound 25, N-[(1Z)-(4-chlorophenyl)methylene]-7-methyl[1,2,4]triazolo[3,4-b][1,3]benzothiazol-3-amine]",2.9 µM,–,–,–,> 100 µM
"COc1ccc(OC)c2c1sc1n[nH]c(=S)n12 [Compound 26, 5,8-Dimethoxy[1,2,4]triazolo[3,4-b][1,3]benzothiazole-3(2H)-thione]",19 µM,66 µM,–,–,–
"COc1ccc(OC)c2c1sc1nnc(NC(=O)C(C)(C)C)n12 [Compound 30, N-(5,8-dimethoxy[1,2,4]triazolo[3,4-b][1,3]benzothiazol-3-yl)-2,2-dimethylpropanamide]",53 µM,–,–,–,–
"COc1ccc(OC)c2c1sc1nnc(NC(C)=O)n12 [Compound 31, N-(5,8-dimethoxy[1,2,4]triazolo[3,4-b][1,3]benzothiazol-3-yl)acetamide]",97 µM,–,–,–,–
